Converted amounts (≈) assume the structure as drawn. The source made the active and inactive calls. The rule behind the calls is not given here. Starred links: 1 amine or outer side, 2 acyl side, 3 side chain; linkers in the order of their positions; H or OH if unused. Positions of bridges follow the written chain, without caps; N, C: chain ends. Non-standard residues stand in square brackets, D forms with d. Residues, ends and D or L forms follow the SMILES beside them. X1 = O=C([C@H](CCCCNCC=[*:3])N[*:1])[*:2]
Columns and labels:
Listeria monocytogenes = test: Antibacterial activity against Listeria monocytogenes assessed as inhibition of bacterial growth incubated for 16 hrs by broth microdilution method; type: functional
Staphylococcus aureus [1] = test: Antibacterial activity against Staphylococcus aureus BNCC 186335 assessed as inhibition of bacterial growth incubated for 16 hrs by broth microdilution method; type: functional
Klebsiella pneumoniae = test: Antibacterial activity against multidrug-resistant Klebsiella pneumoniae assessed as inhibition of bacterial growth incubated for 16 hrs by broth microdilution method; type: functional
Escherichia coli [2] = test: Antibacterial activity against cephalosporin-resistant Escherichia coli BNCC 133264 assessed as inhibition of bacterial growth incubated for 16 hrs by broth microdilution method; type: functional
Staphylococcus aureus [3] = test: Bactericidal activity against methicillin-resistant Staphylococcus aureus BNCC 186335 assessed as log reduction in colony forming unit at 32 ug/ml measured after 30 mins by time kill assay; type: functional, organism-based; conditions: dose 32.0 µg/ml
HEK-293T [4] = test: Cytotoxicity against human HEK293T cells assessed as cell survival rate at 128 ug/ml incubated for 24 hrs by MTT assay relative to control; type: toxicity, cell-based; conditions: dose 128 µg/ml
Cell membrane [5] = test: Induction of membrane damage in methicillin-resistant Staphylococcus aureus BNCC 186335 assessed as concentration of stained cells incubated for 2 hrs by propidium iodide staining based flow cytometer assay; type: subcellular
Staphylococcus aureus [6] = test: Drug resistance development in Staphylococcus aureus assessed as change in MIC at sub-MIC concentration measured after 60 passages; type: functional, organism-based
Cell membrane [7] = test: Induction of membrane disruption in methicillin-resistant Staphylococcus aureus BNCC 186335 assessed as loss of cell integrity at 16 ug/ml measured after 2 hrs by SEM analysis; type: subcellular; conditions: dose 16.0 µg/ml
Staphylococcus aureus [8] = test: Antibacterial activity against multidrug-resistant Staphylococcus aureus BNCC 186335 assessed as inhibition of bacterial growth incubated for 16 hrs by broth microdilution method; type: functional
Cell membrane [9] = test: Induction of membrane disruption in multidrug-resistant Acinetobacter baumannii assessed as loss of cell integrity at 16 ug/ml measured after 2 hrs by SEM analysis; type: subcellular; conditions: dose 16.0 µg/ml
Staphylococcus aureus [10] = test: Antibacterial activity against methicillin-resistant Staphylococcus aureus assessed as inhibition of bacterial growth incubated for 16 hrs by broth microdilution method; type: functional
Staphylococcus aureus [11] = test: Antibacterial activity against methicillin-resistant Staphylococcus aureus BNCC 186335 assessed as inhibition of bacterial growth incubated for 4 hrs in presence of 25% plasma by broth microdilution method; type: functional
Acinetobacter baumannii [12] = test: Bactericidal activity against multidrug-resistant Acinetobacter baumannii assessed as log reduction in colony forming unit at 32 ug/ml measured after 20 mins by time kill assay; type: functional, organism-based; conditions: dose 32.0 µg/ml
HEK-293T [13] = test: Cytotoxicity against human HEK293T cells assessed as cell survival rate at 256 ug/ml incubated for 24 hrs by MTT assay; type: toxicity, cell-based; conditions: dose 256 µg/ml
Cell membrane [14] = test: Induction of membrane damage in multidrug-resistant Acinetobacter baumannii assessed as concentration of stained cells incubated for 2 hrs by propidium iodide staining based flow cytometer assay; type: subcellular; conditions: dose 16.0 µg/ml
Enterococcus faecium = test: Antibacterial activity against multidrug-resistant Enterococcus faecium assessed as inhibition of bacterial growth incubated for 16 hrs by broth microdilution method; type: functional
Escherichia coli [15] = test: Antibacterial activity against Escherichia coli BNCC 133264 assessed as inhibition of bacterial growth incubated for 16 hrs by broth microdilution method; type: functional
Cell membrane [16] = test: Induction of membrane damage in methicillin-resistant Staphylococcus aureus BNCC 186335 assessed as disruption of membrane integrity at 16 ug/ml incubated for 2 hrs by propidium iodide staining based assay; conditions: dose 16.0 µg/ml
[17] = Stability in human plasma assessed as half life measured after 24 hrs by HPLC analysis; type: ADME, cell-free
Pseudomonas aeruginosa [18] = test: Antibacterial activity against multidrug-resistant Pseudomonas aeruginosa BNCC 125486 assessed as inhibition of bacterial growth incubated for 16 hrs by broth microdilution method; type: functional
Erythrocyte = test: Hemolytic activity against human RBC assessed as concentration required to cause 10% hemolysis; type: toxicity, cell-based
Escherichia coli [19] = test: Antibacterial activity against multidrug-resistant Escherichia coli BNCC 133264 assessed as inhibition of bacterial growth incubated for 16 hrs by broth microdilution method; type: functional
Pseudomonas aeruginosa [20] = test: Antibacterial activity against Pseudomonas aeruginosa BNCC 125486 assessed as inhibition of bacterial growth incubated for 16 hrs by broth microdilution method; type: functional
Acinetobacter baumannii [21] = test: Antibacterial activity against multidrug-resistant Acinetobacter baumannii assessed as inhibition of bacterial growth incubated for 16 hrs by broth microdilution method; type: functional
Staphylococcus aureus [22] = test: Antibacterial activity against methicillin-resistant Staphylococcus aureus BNCC 186335 infected in mouse C57BL/6 assessed as reduction in intracellular bacterial burden in liver at 2 mg/kg ,ip incubated for 24 hrs; type: functional, organism-based
Staphylococcus aureus [23] = test: Antibacterial activity against methicillin-resistant Staphylococcus aureus BNCC 186335 infected in mouse C57BL/6 assessed as reduction in intracellular bacterial burden in kidney at 2 mg/kg ,ip incubated for 24 hrs; type: functional, organism-based
Staphylococcus aureus [24] = test: Antibacterial activity against methicillin-resistant Staphylococcus aureus BNCC 186335 infected in mouse C57BL/6 assessed as reduction in intracellular bacterial burden in spleen at 2 mg/kg ,ip incubated for 24 hrs; type: functional, organism-based
Staphylococcus aureus [25] = test: Antibacterial activity against methicillin-resistant Staphylococcus aureus BNCC 186335 infected in mouse C57BL/6 assessed as reduction in intracellular bacterial burden in lung at 2 mg/kg ,ip incubated for 24 hrs; type: functional, organism-based
HEK-293T [26] = test: Cytotoxicity against human HEK293T cells assessed as cell survival rate at 64 Ug/ml incubated for 24 hrs by MTT assay relative to control; type: toxicity, cell-based; conditions: dose 64 µg/ml
HEK-293T [27] = test: Cytotoxicity against human HEK293T cells assessed as cell survival rate at 8 to 128 Ug/ml incubated for 24 hrs by MTT assay relative to control; type: toxicity, cell-based; conditions: dose 8-128 µg/ml

Structure (SMILES)	MIC (Listeria monocytogenes) [µg/mL]	MIC (Staphylococcus aureus [1]) [µg/mL]	MIC (Klebsiella pneumoniae) [µg/mL]	MIC (Escherichia coli [2]) [µg/mL]	MIC (Staphylococcus aureus [8]) [µg/mL]	MIC (Staphylococcus aureus [10]) [µg/mL]	MIC (Staphylococcus aureus [11]) [µg/mL]	Activity (HEK-293T [13])	MIC (Enterococcus faecium) [µg/mL]	MIC (Escherichia coli [15]) [µg/mL]	half-life [17] [min]	MIC (Pseudomonas aeruginosa [18]) [µg/mL]	MHC (Erythrocyte) [µg/mL]	MIC (Escherichia coli [19]) [µg/mL]	MIC (Pseudomonas aeruginosa [20]) [µg/mL]	MIC (Acinetobacter baumannii [21]) [µg/mL]	further results
CC(C)[C@H](N)C(=O)N[C@@H](CCCCN)C(=O)N[C@@H](CCCNC(=N)N)C(=O)N[C@@H](Cc1ccccc1)C(=O)N[C@@H](CCCCN)C(=O)N[C@H]1CCCCNCc2ccccc2CNCCCC[C@@H](C(=O)N[C@@H](Cc2ccccc2)C(=O)N[C@@H](CCCCN)C(=O)N[C@@H](CCCCN)C(=O)N[C@@H](Cc2ccccc2)C(=O)N[C@H](C(N)=O)C(C)C)NC(=O)[C@H](CCCNC(=N)N)NC(=O)[C@H](Cc2ccccc2)NC(=O)[C@H](Cc2ccccc2)NC1=O	4 (≈ 1.87 µM)	2 (≈ 0.937 µM)	16 (≈ 7.5 µM)	8 (≈ 3.75 µM)	4 (≈ 1.87 µM)	2 (≈ 0.937 µM)	8	Toxic	2 (≈ 0.937 µM)	4 (≈ 1.87 µM)	960	8 (≈ 3.75 µM)	32	4 (≈ 1.87 µM)	8 (≈ 3.75 µM)	2 (≈ 0.937 µM)	Activity (Staphylococcus aureus [3]): Active; Activity (HEK-293T [4]): Toxic; Activity (Cell membrane [5]; DDE = dose-dependent effect): Dde; Activity (Staphylococcus aureus [6]): Active; Activity (Cell membrane [7]): Active; Activity (Cell membrane [9]): Active; Activity (Acinetobacter baumannii [12]): Active; Activity (Cell membrane [14]): 27%; Activity (Cell membrane [16]): Active
CC(C)[C@H](N)C(=O)N[C@@H](CCCCN)C(=O)N[C@@H](CCCNC(=N)N)C(=O)N[C@@H](Cc1ccccc1)C(=O)N[C@@H](CCCCN)C(=O)N[C@@H](CCCCN)C(=O)N[C@@H](Cc1ccccc1)C(=O)N[C@@H](Cc1ccccc1)C(=O)N[C@@H](CCCNC(=N)N)C(=O)N[C@@H](CCCCN)C(=O)N[C@@H](Cc1ccccc1)C(=O)N[C@@H](CCCCN)C(=O)N[C@@H](CCCCN)C(=O)N[C@@H](Cc1ccccc1)C(=O)N[C@H](C(N)=O)C(C)C (H-VKRFKKFFRKFKKFV-NH2)	16 (≈ 7.87 µM)	4 (≈ 1.97 µM)	128 (≈ 63 µM)	16 (≈ 7.87 µM)	32 (≈ 15.7 µM)	8 (≈ 3.94 µM)	–	Toxic	8 (≈ 3.94 µM)	2 (≈ 0.984 µM)	150	4 (≈ 1.97 µM)	> 128	8 (≈ 3.94 µM)	8 (≈ 3.94 µM)	4 (≈ 1.97 µM)	Activity (Staphylococcus aureus [22]): Active; Activity (Cell membrane [5]): 11%; Activity (Cell membrane [14]; DDE = dose-dependent effect): Dde; Activity (Staphylococcus aureus [23]): Active; Activity (Staphylococcus aureus [24]): Active; Activity (Staphylococcus aureus [25]): Active
CC(C)[C@H](N)C(=O)N[C@H]1CCCCNC/C=C/CNCCCC[C@@H](C(=O)N[C@@H](Cc2ccccc2)C(=O)N[C@@H](Cc2ccccc2)C(=O)N[C@@H](CCCNC(=N)N)C(=O)N[C@@H](CCCCN)C(=O)N[C@@H](Cc2ccccc2)C(=O)N[C@@H](CCCCN)C(=O)N[C@@H](CCCCN)C(=O)N[C@@H](Cc2ccccc2)C(=O)N[C@H](C(N)=O)C(C)C)NC(=O)[C@H](CCCCN)NC(=O)[C@H](Cc2ccccc2)NC(=O)[C@H](CCCNC(=N)N)NC1=O (H-V[X1]RFK[X1]FFRKFKKFV-NH2; staple (E) 2-6)	16 (≈ 7.68 µM)	2 (≈ 0.959 µM)	–	16 (≈ 7.68 µM)	–	4 (≈ 1.92 µM)	128	Toxic	–	4 (≈ 1.92 µM)	–	–	> 128	–	8 (≈ 3.84 µM)	–	Activity (HEK-293T [26]): Toxic
CC(C)C[C@H](NC(=O)[C@H](C)NC(=O)[C@H](CCCCN)NC(=O)[C@H](C)NC(=O)[C@H](C)NC(=O)CNC(=O)[C@H](CCCCN)NC(=O)[C@H](CC(C)C)NC(=O)[C@H](CC(C)C)NC(=O)[C@H](CC(=O)O)NC(=O)[C@H](CCCCN)NC(=O)[C@H](Cc1ccccc1)NC(=O)CN)C(=O)N[C@H](C(=O)N[C@@H](CCCCN)C(=O)N[C@H](C(=O)N[C@H](C(=O)N[C@@H](CC(C)C)C(=O)N[C@@H](Cc1ccccc1)C(N)=O)C(C)C)[C@@H](C)O)C(C)C [Ascaphin-8] (H-GFKDLLKGAAKALVKTVLF-NH2)	2 (≈ 0.991 µM)	2 (≈ 0.991 µM)	–	32 (≈ 15.9 µM)	–	16 (≈ 7.93 µM)	–	–	–	4 (≈ 1.98 µM)	–	–	32	–	16 (≈ 7.93 µM)	–	Activity (HEK-293T [27]): Toxic

From ChEMBL document CHEMBL5154678, “Lysine Stapling Screening Provides Stable and Low Toxic Cationic Antimicrobial Peptides Combating Multidrug-Resistant Bacteria In Vitro and In Vivo” (J Med Chem, 2022)
